From patent US9624170B2, “4-(piperrazin-1-yl)-pyrrolidin-2-one compounds as monoacylglycerol lipase (MAGL) inhibitors” (TAKEDA PHARMACEUTICAL COMPANY LIMITED, priority 2013, dated 2017)

The compounds below were run against T1, human MAGL (His-hMAGL) (Homo sapiens, UniProt Q99685) (assay: Measurement of MAGL inhibitory activity by mass spectrometry). Conditions: MAGL inhibitory rate, test compound 10 μM, His-hMAGL, substrate 2-arachidonylglycerol, RapidFire-mass spectrometry.
T1 construct: made in house; host or cells: Escherichia coli BL21(DE3)
T1 sequence (Q99685 1-303): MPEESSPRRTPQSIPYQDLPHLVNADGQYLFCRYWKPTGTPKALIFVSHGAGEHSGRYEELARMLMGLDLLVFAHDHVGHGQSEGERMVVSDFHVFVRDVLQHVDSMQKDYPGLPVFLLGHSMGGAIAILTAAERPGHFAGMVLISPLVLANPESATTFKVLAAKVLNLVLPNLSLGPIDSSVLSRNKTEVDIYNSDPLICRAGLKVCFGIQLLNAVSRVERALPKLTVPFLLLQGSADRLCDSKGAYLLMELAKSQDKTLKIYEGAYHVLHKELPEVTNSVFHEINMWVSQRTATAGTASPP
Format: biochemical
How it was run: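 His-tagged human MAGL was reacted with 150 μM 2-arachidonylglycerol substrate (stock, added by 5 μL) for 10 min at room temperature, then stopped with formic acid. Arachidonic acid product was quantified by RapidFire–triple-quadrupole MS in negative SRM mode, corrected by arachidonic acid-d8, and converted to percent inhibition.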

Row | Structure (SMILES) | inhibition at 10 µM
1 | O=C(c1nccs1)N1CCN(C2CC(=O)N(c3cccc(-c4cccc5ccsc45)c3)C2)CC1 (stereo not shown) [Example 313, 1-(3-(1-benzothiophen-7-yl)phenyl)-4-(4-(1,3-thiazol-2-ylcarbonyl)piperazin-1-yl)pyrrolidin-2-one] | 101%
2 | O=C(c1nccs1)N1CCN(C2CC(=O)N(c3cccc(-c4cccc5c4OCC5)c3)C2)CC1 (stereo not shown) [Example 314, 1-(3-(2,3-dihydro-1-benzofuran-7-yl)phenyl)-4-(4-(1,3-thiazol-2-ylcarbonyl)piperazin-1-yl)pyrrolidin-2-one] | 104%
3 | O=C(c1nccs1)N1CCN(C2CC(=O)N(c3cccc(-c4ccc(F)c(C(F)(F)F)c4)c3)C2)CC1 (stereo not shown) [Example 315, 1-(4′-fluoro-3′-(trifluoromethyl)biphenyl-3-yl)-4-(4-(1,3-thiazol-2-ylcarbonyl)piperazin-1-yl)pyrrolidin-2-one] | 101%
4 | N#Cc1ccc(-c2cccc(N3CC(N4CCN(C(=O)c5nccs5)CC4)CC3=O)c2)c(F)c1 (stereo not shown) [Example 316, 2-fluoro-3′-(2-oxo-4-(4-(1,3-thiazol-2-ylcarbonyl)piperazin-1-yl)pyrrolidin-1-yl)biphenyl-4-carbonitrile] | 97%
5 | O=C(c1nccs1)N1CCN(C2CC(=O)N(c3cccc(-c4cccc5cn[nH]c45)c3)C2)CC1 (stereo not shown) [Example 317, 1-(3-(1H-indazol-7-yl)phenyl)-4-(4-(1,3-thiazol-2-ylcarbonyl)piperazin-1-yl)pyrrolidin-2-one] | 99%
6 | O=C(c1nccs1)N1CCN(C2CC(=O)N(c3cccc(-c4cccc5[nH]ncc45)c3)C2)CC1 (stereo not shown) [Example 318, 1-(3-(1H-indazol-4-yl)phenyl)-4-(4-(1,3-thiazol-2-ylcarbonyl)piperazin-1-yl)pyrrolidin-2-one] | 103%
7 | O=C(c1cccc(-c2cccc(N3CC(N4CCN(C(=O)c5nccs5)CC4)CC3=O)c2)c1)N1CCCC1 (stereo not shown) [Example 321, 1-(3′-(pyrrolidin-1-ylcarbonyl)biphenyl-3-yl)-4-(4-(1,3-thiazol-2-ylcarbonyl)piperazin-1-yl)pyrrolidin-2-one] | 102%
8 | Cc1cc(C#N)ccc1-c1cccc(N2CC(N3CCN(C(=O)c4nccs4)CC3)CC2=O)c1 (stereo not shown) [Example 322, 2-methyl-3′-(2-oxo-4-(4-(1,3-thiazol-2-ylcarbonyl)piperazin-1-yl)pyrrolidin-1-yl)biphenyl-4-carbonitrile] | 103%
9 | Cc1nn(C)cc1-c1cccc(N2CC(N3CCN(C(=O)c4nccs4)CC3)CC2=O)c1 (stereo not shown) [Example 325, 1-(3-(1,3-dimethyl-1H-pyrazol-4-yl)phenyl)-4-(4-(1,3-thiazol-2-ylcarbonyl)piperazin-1-yl)pyrrolidin-2-one] | 101%
10 | Cn1ncc2c(-c3cccc(N4CC(N5CCN(C(=O)c6nccs6)CC5)CC4=O)c3)cccc21 (stereo not shown) [Example 326, 1-(3-(1-methyl-1H-indazol-4-yl)phenyl)-4-(4-(1,3-thiazol-2-ylcarbonyl)piperazin-1-yl)pyrrolidin-2-one] | 105%
11 | O=C(c1nccs1)N1CCN(C2CC(=O)N(c3cccc(-c4cccc5ccoc45)c3)C2)CC1 (stereo not shown) [Example 329, 1-(3-(1-benzofuran-7-yl)phenyl)-4-(4-(1,3-thiazol-2-ylcarbonyl)piperazin-1-yl)pyrrolidin-2-one] | 104%
12 | O=C(c1nccs1)N1CCN(C2CC(=O)N(c3cccc(-c4c(F)c(F)c(F)c(F)c4F)c3)C2)CC1 (stereo not shown) [Example 330, 1-(2′,3′,4′,5′,6′-pentafluorobiphenyl-3-yl)-4-(4-(1,3-thiazol-2-ylcarbonyl)piperazin-1-yl)pyrrolidin-2-one] | 101%
13 | O=C(c1nccs1)N1CCN(C2CC(=O)N(c3cccc(-c4cnc5ccccn45)c3)C2)CC1 (stereo not shown) [Example 331, 1-(3-(imidazo[1,2-a]pyridin-3-yl)phenyl)-4-(4-(1,3-thiazol-2-ylcarbonyl)piperazin-1-yl)pyrrolidin-2-one] | 101%
14 | O=C(c1nccs1)N1CCN(C2CC(=O)N(c3cccc(-c4n[nH]c5ccccc45)c3)C2)CC1 (stereo not shown) [Example 332, 1-(3-(1H-indazol-3-yl)phenyl)-4-(4-(1,3-thiazol-2-ylcarbonyl)piperazin-1-yl)pyrrolidin-2-one] | 100%
15 | Cn1ccnc1-c1cccc(N2CC(N3CCN(C(=O)c4nccs4)CC3)CC2=O)c1 (stereo not shown) [Example 333, 1-(3-(1-methyl-1H-imidazol-2-yl)phenyl)-4-(4-(1,3-thiazol-2-ylcarbonyl)piperazin-1-yl)pyrrolidin-2-one] | 83%
16 | O=C(c1nccs1)N1CCN(C2CC(=O)N(c3cccc(-c4c[nH]c5ncccc45)c3)C2)CC1 (stereo not shown) [Example 337, 1-(3-(1H-pyrrolo[2,3-b]pyridin-3-yl)phenyl)-4-(4-(1,3-thiazol-2-ylcarbonyl)piperazin-1-yl)pyrrolidin-2-one] | 99%

Next, values leading:

Row | inhibition at 10 µM | Structure (SMILES)
17 | 102% | NC(=O)Cc1cccc(-c2cccc(N3CC(N4CCN(C(=O)c5nccs5)CC4)CC3=O)c2)c1 (stereo not shown) [Example 319, 2-(3′-(2-oxo-4-(4-(1,3-thiazol-2-ylcarbonyl)piperazin-1-yl)pyrrolidin-1-yl)biphenyl-3-yl)acetamide]
18 | 100% | O=C(c1nccs1)N1CCN(C2CC(=O)N(c3cccc(-c4cccc5cc[nH]c45)c3)C2)CC1 (stereo not shown) [Example 320, 1-(3-(1H-indol-7-yl)phenyl)-4-(4-(1,3-thiazol-2-ylcarbonyl)piperazin-1-yl)pyrrolidin-2-one]
19 | 100% | COc1ccsc1-c1cccc(N2CC(N3CCN(C(=O)c4nccs4)CC3)CC2=O)c1 (stereo not shown) [Example 323, 1-(3-(3-methoxy-2-thienyl)phenyl)-4-(4-(1,3-thiazol-2-ylcarbonyl)piperazin-1-yl)pyrrolidin-2-one]
20 | 101% | Cc1c(-c2cccc(N3CC(N4CCN(C(=O)c5nccs5)CC4)CC3=O)c2)cnn1C (stereo not shown) [Example 324, 1-(3-(1,5-dimethyl-1H-pyrazol-4-yl)phenyl)-4-(4-(1,3-thiazol-2-ylcarbonyl)piperazin-1-yl)pyrrolidin-2-one]
21 | 100% | O=C(c1nccs1)N1CCN(C2CC(=O)N(c3cccc(-c4c[nH]nc4C(F)(F)F)c3)C2)CC1 (stereo not shown) [Example 327, 4-(4-(1,3-thiazol-2-ylcarbonyl)piperazin-1-yl)-1-(3-(3-(trifluoromethyl)-1H-pyrazol-4-yl)phenyl)pyrrolidin-2-one]
22 | 102% | O=C(c1nccs1)N1CCN(C2CC(=O)N(c3cccc(-c4coc5ccccc45)c3)C2)CC1 (stereo not shown) [Example 328, 1-(3-(1-benzofuran-3-yl)phenyl)-4-(4-(1,3-thiazol-2-ylcarbonyl)piperazin-1-yl)pyrrolidin-2-one]
23 | 103% | O=C(c1nccs1)N1CCN(C2CC(=O)N(c3cccc(-c4nsc5ccccc45)c3)C2)CC1 (stereo not shown) [Example 334, 1-(3-(1,2-benzothiazol-3-yl)phenyl)-4-(4-(1,3-thiazol-2-ylcarbonyl)piperazin-1-yl)pyrrolidin-2-one]
24 | 101% | Cc1nc2ccccn2c1-c1cccc(N2CC(N3CCN(C(=O)c4nccs4)CC3)CC2=O)c1 (stereo not shown) [Example 335, 1-(3-(2-methylimidazo[1,2-a]pyridin-3-yl)phenyl)-4-(4-(1,3-thiazol-2-ylcarbonyl)piperazin-1-yl)pyrrolidin-2-one]
25 | 100% | N#Cc1cccc(F)c1-c1cccc(N2CC(N3CCN(C(=O)c4nccs4)CC3)CC2=O)c1 (stereo not shown) [Example 336, 6-fluoro-3′-(2-oxo-4-(4-(1,3-thiazol-2-ylcarbonyl)piperazin-1-yl)pyrrolidin-1-yl)biphenyl-2-carbonitrile]
